Assay results as given in US20130281544A1, “HEPATOPROTECTANT ACTIVITY OF GARCINOL” (priority 2010, published 2013).
Marks after values point to notes of the source that are not given here.

Tested on: alcohol (Ethyl alcohol) induced hepatotoxic animal models
Assay: Serum ALT, AST, ALP and bilirubin in alcohol (ethyl alcohol) induced hepatotoxic animal models
Assay type: in vivo, Male Wistar Rats
Settings: EtOH; for ALP percent change / ALT percent change / AST percent change / Bilirubin percent change / ALP / ALT / AST / Bilirubin: serum; for ALP / ALT / AST / Bilirubin: Mean ± SE
Protocol: Doses of Garcinol (GC) used for the study: 1.25, 2.5, 5, 10 mg/kg p.o.
Standard drug: Silymarin (50 mg/kg) p.o.
Male Wistar rats, weighing 180-200 g, were given 0.5-0.6 ml ethanol orally. […] All rats had regular standard rat chow available throughout the 6-week period. Rats were weighted three times per week. [Guangjin Yuan, Zuojiong Gong *, Xiaorong Zhou, Pin Zhang, Xiaomei Sun and Xi Li. Epigallocatechin-3-Gallate Ameliorates Alcohol-Induced Liver Injury in Rats. Int. J. Mol. Sci. 2006, 7, 204-219]. Blood was collected from the retro-orbital plexus of experimental animals and no anti-coagulant was added. Blood was made to stand at room temperature for 1 hour. It was then centrifuged and clear serum was separated. The serum was then stored for analysis. Reference: (Magari et al., 2004).
(ASPARTATE AMINOTRANSFERASE and ALANINA AMINOTRANSFERASE), Reference: Ritman S, Frankel S, (1957). A colorimetric method for the determination of serum glutamic oxaloacetic and glutamic pyruvic transaminases. American Journal of Clinical Pathology; 28: 56-63.
0.2 ml of serum, collected from test and control samples, was mixed with 1.0 ml of buffer solution and incubated for 60 min at 37° C. in a water bath. After the addition of 1.0 ml of chromogen solution, the samples were kept at room temperature for 20 minutes for the reaction to proceed and 10 ml NaOH was added. The optical density was red at 546 nm after 5 min. To the blank, serum was added after the addition of chromogen solution.
(ALKALINE PHOSPHATASE), Reference: Klaus Walter and Schutt C. (1974). Acid and alkaline phosphatase in serum. In: Methods of Enzymatic Analysis. Eds. Hans Ulrich Bergmeyer, Verlag ChemieWeinheim, Academic press, Inc. New York, 2nd Edition, Vol. 2, pp. 855-64.
Alkaline phosphatase activity measurement is based on the ability of the enzyme to hydrolyze p-nitrophenol phosphate under alkaline conditions. The cleaved product p-nitrophenol is yellow in alkaline solution and is measured at 400-420 nm (Klaus and Schutt, 1974). 2.0 ml of buffered substrate was taken in the tubes ‘Test’ ‘Control’ and ‘Blank’ followed by addition of serum and distilled water (0.1 ml) in ‘Test’ and ‘Blank’ respectively and incubated in a water bath for 30 minutes at 25° C. After incubation sodium hydroxide was added (0.25 N, 2 ml) to all the tubes, which was followed by serum (0.1 ml) to the tubes marked ‘Control’. The yellow colour formed was measured spectrophotometrically against blank at 410 nm.
[BILIRUBIN (BRBN)], Reference: Malloy H T and Evelyn K A (1937). The determination of bilirubin with photoelectric colorimeter. Journal of Biological Chemistry 119: 481-490.
Serum bilirubin was estimated by the method of Malloy and Evelyn (1937). In the two sets of test tubes marked ‘Test’ and ‘Control’, serum (0.2 ml) and distilled water (1.8 ml) were added. To the tubes marked ‘Test’ and ‘Standard’ diazo reagent (0.5 ml) was added. To the test tubes marked ‘Control’ and ‘Blank’ diazo blank (0.5 ml) was added. Finally methanol (2.5 ml) was added into each test tube. The tubes were mixed and allowed to stand for 30 minutes in dark. The tubes were read after 10 minutes at 540 nm.

For C=C(C)[C@@H](CC=C(C)C)C[C@@]12C[C@@H](CC=C(C)C)C(C)(C)[C@@](CC=C(C)C)(C(=O)C(C(=O)c3ccc(O)c(O)c3)=C1O)C2=O [Garcinol], the “Average Protection” value (1.25 mg/kg p.o.) was 17.32%, the “Average Protection” value (2.50 mg/kg p.o.) was 29.82% and the “Average Protection” value (5.00 mg/kg p.o.) was 39.39%. The “Average Protection” value (10.00 mg/kg p.o.) was 40.20%, the ALP percent change (1.25 mg/kg p.o.) was “(14.91) %” and the ALT percent change (1.25 mg/kg p.o.) was “(27.45) %”. The AST percent change (1.25 mg/kg p.o.) was “(20.20) %”, the Bilirubin percent change (1.25 mg/kg p.o.) was “(6.73) %” and the ALP (1.25 mg/kg p.o.) was 88.68 ± 8.58 μmol min/lt. For the same compound, the ALT (1.25 mg/kg p.o.) was 1320.40 ± 52.20* μmol min/lt, the AST (1.25 mg/kg p.o.) was 858.80 ± 32.64 μmol min/lt and the Bilirubin (1.25 mg/kg p.o.) was 1.94 ± 0.02 mg %. For the same compound, the ALP percent change (2.50 mg/kg p.o.) was “(26.96) %”, the ALT percent change (2.50 mg/kg p.o.) was “(40.63) %” and the AST percent change (2.50 mg/kg p.o.) was “(32.47) %”. For the same compound, the Bilirubin percent change (2.50 mg/kg p.o.) was “(19.23) %”, the ALP (2.50 mg/kg p.o.) was 76.12 ± 4.88* μmol min/lt and the ALT (2.50 mg/kg p.o.) was 1080.50 ± 48.56** μmol min/lt. The AST (2.50 mg/kg p.o.) was 726.78 ± 46.50* μmol min/lt, the Bilirubin (2.50 mg/kg p.o.) was 1.68 ± 0.04* mg % and the ALP percent change (5.00 mg/kg p.o.) was “(34.44) %”. The ALT percent change (5.00 mg/kg p.o.) was “(51.83) %”, the AST percent change (5.00 mg/kg p.o.) was “(39.58) %” and the Bilirubin percent change (5.00 mg/kg p.o.) was “(31.73) %”. For the same compound, the ALP (5.00 mg/kg p.o.) was 68.32 ± 5.60** μmol min/lt, the ALT (5.00 mg/kg p.o.) was 876.58 ± 76.80** μmol min/lt and the AST (5.00 mg/kg p.o.) was 650.26 ± 56.20** μmol min/lt. The Bilirubin (5.00 mg/kg p.o.) was 1.42 ± 0.06** mg %, the ALP percent change (10.00 mg/kg p.o.) was “(33.79) %” and the ALT percent change (10.00 mg/kg p.o.) was “(52.15) %”. For the same compound, the AST percent change (10.00 mg/kg p.o.) was “(41.23) %”, the Bilirubin percent change (10.00 mg/kg p.o.) was “(33.65) %” and the ALP (10.00 mg/kg p.o.) was 69.00 ± 4.82** μmol min/lt. For the same compound, the ALT (10.00 mg/kg p.o.) was 870.80 ± 48.40** μmol min/lt, the AST (10.00 mg/kg p.o.) was 632.48 ± 44.56** μmol min/lt and the Bilirubin (10.00 mg/kg p.o.) was 1.39 ± 0.04** mg %.
